These results are taken from patent publication US12448394B2, “Heterocyclic pyrazole derivatives as type III receptor tyrosine kinase inhibitors” (DEVELOPMENT CENTER FOR BIOTECHNOLOGY, priority 2019, dated 2025).

Assay [1] has as its system HCC827 NSCLC cell with EGFR exon 19 deletion mutation. Put plainly: HCC827 cell proliferation assay (counter screen). The class given is cell-based, human. The following applies: Homo sapiens, HCC827 cells, 72 hours treatment, CellTiter96, read-out: anti-proliferation activity HCC827 EGFR Exon19 del, IC50 ranking. The procedure, abridged: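 HCC827 cells (EGFR exon 19 deletion) were seeded at 8000 cells/well in RPMI1640 with 10% FBS, then exposed to increasing compound concentrations for 72 h at 37 °C. Viability was read by CellTiter96 AQueous One (MTS), absorbance 490 nm after 2–4 h.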
Background: A counterscreen serves to expose hits that act by an unwanted route or on another target.

For another assay, the target named is T1, FLT3-D835Y mutant kinase (Homo sapiens, UniProt P36888, D835Y).
T1 construct: purchased SignalChem
T1 sequence (P36888 27-993 D835Y): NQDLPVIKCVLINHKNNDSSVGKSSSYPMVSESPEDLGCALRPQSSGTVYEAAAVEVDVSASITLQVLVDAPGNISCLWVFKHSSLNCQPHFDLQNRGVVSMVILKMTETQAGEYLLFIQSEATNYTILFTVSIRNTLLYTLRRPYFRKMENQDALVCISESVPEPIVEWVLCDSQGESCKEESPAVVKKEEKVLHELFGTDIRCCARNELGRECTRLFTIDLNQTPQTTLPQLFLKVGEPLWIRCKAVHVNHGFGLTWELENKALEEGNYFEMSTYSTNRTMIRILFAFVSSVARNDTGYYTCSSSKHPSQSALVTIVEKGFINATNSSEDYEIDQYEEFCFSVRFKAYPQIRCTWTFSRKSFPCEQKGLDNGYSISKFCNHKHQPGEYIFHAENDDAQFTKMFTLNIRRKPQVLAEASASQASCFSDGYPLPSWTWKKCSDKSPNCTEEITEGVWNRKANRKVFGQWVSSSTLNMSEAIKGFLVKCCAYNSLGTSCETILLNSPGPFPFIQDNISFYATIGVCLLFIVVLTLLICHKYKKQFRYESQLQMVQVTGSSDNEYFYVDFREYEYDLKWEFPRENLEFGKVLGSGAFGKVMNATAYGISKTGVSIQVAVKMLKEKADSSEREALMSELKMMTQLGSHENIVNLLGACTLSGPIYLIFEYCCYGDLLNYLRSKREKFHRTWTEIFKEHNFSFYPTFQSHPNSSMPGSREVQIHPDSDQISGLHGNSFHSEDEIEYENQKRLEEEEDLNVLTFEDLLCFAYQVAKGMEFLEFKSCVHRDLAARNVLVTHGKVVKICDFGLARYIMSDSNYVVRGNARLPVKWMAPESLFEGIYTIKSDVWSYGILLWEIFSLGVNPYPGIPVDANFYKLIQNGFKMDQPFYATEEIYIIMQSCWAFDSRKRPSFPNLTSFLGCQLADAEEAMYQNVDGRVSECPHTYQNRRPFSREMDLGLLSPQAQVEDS
Put plainly: FLT3-D835Y mutant kinase assay (AlphaScreen). As to conditions: read-out: Ranking of IC50 values, FLT3-D835Y. Format: biochemical. Summed up:
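AlphaScreen readout of biotin-poly(Glu4:Tyr1) phosphorylation by 1 ng recombinant FLT3-D835Y. Conditions were 10 μM ATP, 10 mM MgCl2, MOPS pH 7.0, 30 min at 30 °C, EDTA stop. Compounds were serially diluted in duplicate to derive IC50.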
For orientation: Alpha assays give light when donor and acceptor beads are brought close together.

Assay [2] relates to A375 melanoma cell with BRAF V600E mutation. Kind of assay: A375 cell proliferation assay (counter screen). Format: cell-based, human. The following applies: Homo sapiens, A-375, A375 cells, 72 hours treatment, CellTiter96, read-out: anti-proliferation activity A375 BRAF V600E, IC50 ranking. The procedure, abridged:
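A375 cells (BRAF V600E) seeded at 2000 cells/well in DMEM with 10% FBS, settled overnight at 37° C, 5% CO2, then exposed to increasing compound concentrations for 72 hours. Viability read by MTS-type CellTiter96 AQueous reagent, absorbance at 490 nm after 2–4 hours.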

The target in a further assay is T2, PDGFRα kinase (Homo sapiens, UniProt P16234).
T2 construct: purchased SignalChem
T2 sequence (P16234 24-1089): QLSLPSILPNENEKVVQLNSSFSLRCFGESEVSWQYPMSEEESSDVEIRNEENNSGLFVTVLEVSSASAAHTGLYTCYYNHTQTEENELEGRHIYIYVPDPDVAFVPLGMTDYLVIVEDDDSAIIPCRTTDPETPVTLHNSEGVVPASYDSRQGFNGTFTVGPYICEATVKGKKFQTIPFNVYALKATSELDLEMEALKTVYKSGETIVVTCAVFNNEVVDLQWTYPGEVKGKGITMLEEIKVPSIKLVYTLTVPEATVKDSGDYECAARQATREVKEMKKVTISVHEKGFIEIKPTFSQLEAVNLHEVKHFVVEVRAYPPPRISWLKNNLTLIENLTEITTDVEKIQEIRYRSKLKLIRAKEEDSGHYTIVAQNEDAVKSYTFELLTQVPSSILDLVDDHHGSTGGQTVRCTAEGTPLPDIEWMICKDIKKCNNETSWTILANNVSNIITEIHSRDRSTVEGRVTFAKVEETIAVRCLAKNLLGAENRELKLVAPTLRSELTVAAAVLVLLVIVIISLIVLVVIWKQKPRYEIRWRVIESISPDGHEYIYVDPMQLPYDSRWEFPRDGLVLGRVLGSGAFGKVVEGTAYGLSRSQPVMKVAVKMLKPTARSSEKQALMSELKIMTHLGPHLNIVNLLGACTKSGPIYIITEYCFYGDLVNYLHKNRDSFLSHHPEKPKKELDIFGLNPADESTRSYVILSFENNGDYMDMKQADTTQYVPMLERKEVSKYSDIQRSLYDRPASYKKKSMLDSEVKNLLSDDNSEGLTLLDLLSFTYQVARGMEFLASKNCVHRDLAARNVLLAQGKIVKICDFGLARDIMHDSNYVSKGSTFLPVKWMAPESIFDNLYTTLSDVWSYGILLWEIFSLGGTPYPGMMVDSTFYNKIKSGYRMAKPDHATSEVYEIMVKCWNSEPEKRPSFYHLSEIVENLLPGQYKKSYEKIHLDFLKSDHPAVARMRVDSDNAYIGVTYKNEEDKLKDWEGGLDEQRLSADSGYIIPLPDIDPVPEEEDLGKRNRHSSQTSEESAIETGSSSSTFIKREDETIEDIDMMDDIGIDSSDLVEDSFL
Put plainly: PDGFRα kinase assay (AlphaScreen). The class given is biochemical. As to conditions: read-out: Ranking of IC50 values, PDGFRα. Summed up: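 IC50 values came from duplicate serial dilutions, with product read by AlphaScreen. The reaction ran 30 min at 30 °C, then EDTA stop: 1.5 ng recombinant enzyme, biotin-poly(Glu4:Tyr1) substrate, 10 μM ATP, 10 mM MOPS pH 7.0, 10 mM MgCl2.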

As for `C[C@@H]1CN(Cc2cccc(-c3cc4c(s3)Cc3c(-c5ccc6cnn(C)c6c5)n[nH]c3-4)c2)C[C@H](C)O1` [Compound 12, (2S,6R)-2,6-dimethyl-4-(3-(3-(1-methyl-1H-indazol-6-yl)-1,4-dihydrothieno [2′,3′:4,5]cyclopenta[1,2-c]pyrazol-6-yl)benzyl) morpholine], the IC50 in assay [1] is above 10000 nM; on FLT3-D835Y mutant kinase it was 1 to 10 nM; in assay [2], above 10000 nM; at PDGFRα kinase it was 30 to 100 nM.
`CN(C)c1ccc(-c2cc3c(s2)Cc2c(-c4ccc5cnn(C)c5c4)n[nH]c2-3)cn1` [Compound 5, N,N-dimethyl-5-(3-(1-methyl-1H-indazol-6-yl)-1,4-dihydrothieno [2′,3′:4,5]cyclopenta[1,2-c]pyrazol-6-yl)pyridin-2-amine]: the IC50 is above 10000 nM in assay [1], 1 to 10 nM on FLT3-D835Y mutant kinase, above 10000 nM in assay [2] and 10 to 30 nM at PDGFRα kinase.
As for `Cn1cc(-c2cc3c(s2)Cc2c(-c4ccc5cnn(C)c5c4)n[nH]c2-3)cc1C(=O)N1CCOCC1` [Compound 46, (1-methyl-4-(3-(1-methyl-1H-indazol-6-yl)-1,4-dihydrothieno[2′,3′:4,5]cyclopenta[1,2-c]pyrazol-6-yl)-1H-pyrrol-2-yl) (morpholino)methanone], the IC50 is above 10000 nM in assay [1], below 1 nM on FLT3-D835Y mutant kinase, above 10000 nM in assay [2] and 1 to 10 nM on PDGFRα kinase.
In the case of `Cn1ncc2ccc(-c3n[nH]c4c3Cc3sc(-c5cccc(OCCN6CCOCC6)c5)cc3-4)cc21` [Compound 70, 4-(2-(3-(3-(1-methyl-1H-indazol-6-yl)-1,4-dihydro-thieno[2′,3′:4,5]cyclopenta [1,2-c]pyrazol-6-yl)phenoxy)ethyl)morpholine], the IC50 in assay [1] is above 10000 nM; on FLT3-D835Y mutant kinase, below 1 nM; in assay [2], above 10000 nM; on PDGFRα kinase it was 10 to 30 nM.
Regarding `Cn1ncc2ccc(-c3n[nH]c4c3Cc3sc(C5CCN(C(=O)OC(C)(C)C)CC5)cc3-4)cc21` [Compound 58, tert-butyl-4-(3-(1-methyl-1H-indazol-6-yl)-1,4-dihydrothieno[2′,3′:4,5]cyclopenta[1,2-c]pyrazol-6-yl)piperidine-1-carboxylate], the IC50 in assay [1] was above 10000 nM; at FLT3-D835Y mutant kinase, 1 to 10 nM; in assay [2], above 10000 nM; on PDGFRα kinase, 30 to 100 nM.
For `Cn1ncc2ccc(-c3n[nH]c4c3Cc3sc(-c5cc(C(=O)N6CCOCC6)ccn5)cc3-4)cc21` [Compound 56, (2-(3-(1-methyl-1H-indazol-6-yl)-1,4-dihydro-thieno[2′,3′:4,5]cyclopenta [1,2-c]pyrazol-6-yl)pyridin-4-yl)(morpholino) methanone], the IC50 in assay [1] was above 10000 nM; at FLT3-D835Y mutant kinase, 1 to 10 nM; in assay [2] it was above 10000 nM; at PDGFRα kinase it was 1 to 10 nM.
With `Cn1ncc2ccc(-c3n[nH]c4c3Cc3sc(-c5ccc(CCN6CCOCC6)cc5)cc3-4)cc21` [Compound 22, 4-(4-(3-(1-methyl-1H-indazol-6-yl)-1,4-dihydro-thieno[2′,3′:4,5]cyclopenta [1,2-c]pyrazol-6-yl)phenethyl)morpholine], the IC50 in assay [1] is above 10000 nM; at FLT3-D835Y mutant kinase, 1 to 10 nM; in assay [2] it was above 10000 nM; at PDGFRα kinase it was 10 to 30 nM.
Regarding `Cn1ncc2ccc(-c3n[nH]c4c3Cc3sc(-c5ccc(CN6CCC(F)(F)C6)cc5)cc3-4)cc21` [Compound 67, 6-(4-((3,3-difluoro-pyrrolidin-1-yl)methyl)phenyl)-3-(1-methyl-1H-indazol-6-yl)-1,4-dihydro-thieno[2′,3′:4,5]cyclopenta [1,2-c]pyrazole], the IC50 was above 10000 nM in assay [1], 1 to 10 nM at FLT3-D835Y mutant kinase, above 10000 nM in assay [2] and 10 to 30 nM at PDGFRα kinase.
Turning to `CC1C(=O)N(C)CCN1Cc1ccc(-c2cc3c(s2)Cc2c(-c4ccc5cnn(C)c5c4)n[nH]c2-3)cc1` (stereo not shown) [Compound 65, 1,3-dimethyl-4-(4-(3-(1-methyl-1H-indazol-6-yl)-1,4-dihydrothieno [2′,3′:4,5]cyclopenta [1,2-c]pyrazol-6-yl)benzyl)piperazin-2-one], the IC50 in assay [1] was above 10000 nM; on FLT3-D835Y mutant kinase it was below 1 nM; in assay [2], above 10000 nM; on PDGFRα kinase, 1 to 10 nM.
Consider `Cn1ncc2ccc(-c3n[nH]c4c3Cc3sc(-c5ccc(C(=O)N6CCOCC6)cc5)cc3-4)cc21` [Compound 21, (4-(3-(1-methyl-1H-indazol-6-yl)-1,4-dihydro-thieno[2′,3′:4,5]cyclopenta [1,2-c]pyrazol-6-yl)phenyl) (morpholino)methanone], for which the IC50 is above 10000 nM in assay [1], below 1 nM at FLT3-D835Y mutant kinase, above 10000 nM in assay [2] and 1 to 10 nM at PDGFRα kinase.
Consider `CCC(c1ccc(-c2cc3c(s2)Cc2c(-c4ccc5cnn(C)c5c4)n[nH]c2-3)cc1)N1CCOCC1` (stereo not shown) [Compound 28, 4-(1-(4-(3-(1-methyl-1H-indazol-6-yl)-1,4-dihydro-thieno[2′,3′:4,5]cyclopenta [1,2-c]pyrazol-6-yl)phenyl)propyl)morpholine], for which the IC50 is above 10000 nM in assay [1], 1 to 10 nM on FLT3-D835Y mutant kinase, above 10000 nM in assay [2] and 10 to 30 nM on PDGFRα kinase.
As for `Cc1ccc(-c2cc3c(s2)Cc2c(-c4ccc5cnn(C)c5c4)n[nH]c2-3)cn1` [Compound 11, 3-(1-methyl-1H-indazol-6-yl)-6-(6-methylpyridin-3-yl)-1,4-dihydrothieno [2′,3′:4,5]cyclopenta[1,2-c] pyrazole], the IC50 in assay [1] was above 10000 nM; on FLT3-D835Y mutant kinase it was below 1 nM; in assay [2], above 10000 nM; at PDGFRα kinase, 10 to 30 nM.
As to `CN1CCN(Cc2cccc(-c3cc4c(s3)Cc3c(-c5ccc6cnn(C)c6c5)n[nH]c3-4)c2)CC1` [Compound 14, 3-(1-methyl-1H-indazol-6-yl)-6-(3-((4-methylpiperazin-1-yl)methyl)phenyl)-1,4-dihydrothieno [2′,3′:4,5]cyclopenta[1,2-c] pyrazole], the IC50 was above 10000 nM in assay [1], 1 to 10 nM on FLT3-D835Y mutant kinase, 1000 to 10000 nM in assay [2] and 10 to 30 nM on PDGFRα kinase.
On the same counts, the results for `Cn1ncc2ccc(-c3n[nH]c4c3Cc3sc(-c5ccc(OCCN6CCOCC6)cc5)cc3-4)cc21` [Compound 69, 4-(2-(4-(3-(1-methyl-1H-indazol-6-yl)-1,4-dihydro-thieno[2′,3′:4,5]cyclopenta [1,2-c]pyrazol-6-yl)phenoxy)ethyl)morpholine] are above 10000 nM, below 1 nM, above 10000 nM and 10 to 30 nM.
For `CN(C)S(=O)(=O)c1ccc(-c2cc3c(s2)Cc2c(-c4ccc5cnn(C)c5c4)n[nH]c2-3)cc1` [Compound 50, N,N-dimethyl-4-(3-(1-methyl-1H-indazol-6-yl)-1,4-dihydrothieno [2′,3′:4,5]cyclopenta [1,2-c]pyrazol-6-yl) benzenesulfonamide], the IC50 in assay [1] is above 10000 nM; on FLT3-D835Y mutant kinase, below 1 nM; in assay [2], above 10000 nM; on PDGFRα kinase, 10 to 30 nM.
Take `Cn1ncc2ccc(-c3n[nH]c4c3Cc3sc(C5CCN(C(=O)CN6CCOCC6)CC5)cc3-4)cc21` [Compound 98, 1-(4-(3-(1-methyl-1H-indazol-6-yl)-1,4-dihydro-thieno[2′,3′:4,5]cyclopenta [1,2-c]pyrazol-6-yl)piperidin-1-yl)-2-morpholinoethan-1-one]: the IC50 is above 10000 nM in assay [1], below 1 nM on FLT3-D835Y mutant kinase, 1000 to 10000 nM in assay [2] and 1 to 10 nM on PDGFRα kinase.
